# Results from article PMC11951083, “Highly Specific Miniaturized Fluorescent Monoacylglycerol Lipase Probes Enable Translational Research” (Journal of the American Chemical Society, 2025).
# Columns and labels:
# ACE (h) = ACE (h) (Homo sapiens, UniProt P12821); experiment: ACE (h); details: read-out: Inhibition ACE (h)
# HIV-1 protease = experiment: HIV-1 protease; details: 10 µM
# Abl kinase (h) = Abl kinase (h) (Homo sapiens, UniProt P00519); experiment: Abl kinase (h); details: read-out: Inhibition Abl kinase (h)
# ZAP70 kinase (h) = target: T1, ZAP70 kinase (h) (Homo sapiens, UniProt P43403); experiment: ZAP70 kinase (h); details: read-out: Inhibition ZAP70 kinase (h)
# T1 sequence (P43403 1-619): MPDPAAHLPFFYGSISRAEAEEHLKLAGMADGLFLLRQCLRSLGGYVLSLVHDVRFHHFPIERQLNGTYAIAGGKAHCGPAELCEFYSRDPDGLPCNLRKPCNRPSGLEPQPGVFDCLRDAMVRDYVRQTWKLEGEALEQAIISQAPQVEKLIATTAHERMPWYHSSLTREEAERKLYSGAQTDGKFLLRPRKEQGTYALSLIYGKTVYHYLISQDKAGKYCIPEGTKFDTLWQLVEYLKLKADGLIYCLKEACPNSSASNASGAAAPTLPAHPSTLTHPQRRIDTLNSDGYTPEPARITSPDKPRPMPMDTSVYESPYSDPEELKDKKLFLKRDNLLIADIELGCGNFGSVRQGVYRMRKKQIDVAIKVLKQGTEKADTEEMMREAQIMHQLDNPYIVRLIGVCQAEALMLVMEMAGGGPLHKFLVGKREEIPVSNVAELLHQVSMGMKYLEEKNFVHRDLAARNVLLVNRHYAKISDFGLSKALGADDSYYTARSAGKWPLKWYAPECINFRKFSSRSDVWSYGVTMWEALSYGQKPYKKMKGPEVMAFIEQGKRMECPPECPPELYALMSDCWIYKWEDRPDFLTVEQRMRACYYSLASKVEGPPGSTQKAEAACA
# acetylcholinesterase (h) = acetylcholinesterase (h) (Homo sapiens, UniProt P22303); experiment: acetylcholinesterase (h); details: read-out: Inhibition acetylcholinesterase (h)
# AR(h) = target: T2, AR(h) (Homo sapiens, UniProt P10275); experiment: AR(h) (agonist radioligand); details: read-out: Inhibition AR(h) (agonist radioligand)
# T2 sequence (P10275 1-920): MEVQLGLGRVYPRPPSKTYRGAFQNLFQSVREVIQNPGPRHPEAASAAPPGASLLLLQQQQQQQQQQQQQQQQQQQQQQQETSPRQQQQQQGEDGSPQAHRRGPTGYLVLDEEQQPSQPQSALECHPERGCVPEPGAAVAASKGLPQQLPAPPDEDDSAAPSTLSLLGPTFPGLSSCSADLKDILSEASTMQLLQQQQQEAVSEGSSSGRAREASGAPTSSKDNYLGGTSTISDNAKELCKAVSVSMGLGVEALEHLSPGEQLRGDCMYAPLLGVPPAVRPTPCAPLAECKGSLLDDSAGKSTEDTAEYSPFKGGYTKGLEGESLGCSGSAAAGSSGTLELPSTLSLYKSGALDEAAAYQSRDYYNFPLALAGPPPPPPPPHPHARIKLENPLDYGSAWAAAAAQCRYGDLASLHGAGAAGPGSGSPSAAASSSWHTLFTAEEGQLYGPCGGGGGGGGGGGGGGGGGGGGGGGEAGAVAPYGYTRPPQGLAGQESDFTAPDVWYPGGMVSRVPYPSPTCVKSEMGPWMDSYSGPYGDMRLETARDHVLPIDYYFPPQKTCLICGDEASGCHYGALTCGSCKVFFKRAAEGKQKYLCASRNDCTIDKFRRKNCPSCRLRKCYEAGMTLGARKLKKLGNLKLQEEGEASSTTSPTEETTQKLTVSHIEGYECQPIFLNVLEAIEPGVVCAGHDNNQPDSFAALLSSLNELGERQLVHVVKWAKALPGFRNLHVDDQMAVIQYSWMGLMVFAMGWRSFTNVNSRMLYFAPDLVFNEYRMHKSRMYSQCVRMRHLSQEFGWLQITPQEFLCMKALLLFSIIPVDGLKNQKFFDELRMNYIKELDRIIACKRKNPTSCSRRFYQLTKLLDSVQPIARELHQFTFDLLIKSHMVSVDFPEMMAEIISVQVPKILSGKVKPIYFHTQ
# A3 (h) = target: T3, A3 (h) (Homo sapiens, UniProt P0DMS8); experiment: A3 (h) (agonist radioligand); details: read-out: Inhibition A3 (h) (agonist radioligand)
# T3 sequence (P0DMS8 1-318): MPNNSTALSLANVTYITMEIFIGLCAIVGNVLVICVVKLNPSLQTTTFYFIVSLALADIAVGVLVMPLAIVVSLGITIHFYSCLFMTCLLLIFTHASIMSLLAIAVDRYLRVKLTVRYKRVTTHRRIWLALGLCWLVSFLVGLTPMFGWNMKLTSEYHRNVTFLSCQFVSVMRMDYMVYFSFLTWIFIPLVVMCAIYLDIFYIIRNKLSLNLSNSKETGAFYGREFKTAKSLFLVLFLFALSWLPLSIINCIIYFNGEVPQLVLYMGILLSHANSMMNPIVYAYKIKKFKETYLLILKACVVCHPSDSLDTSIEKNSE
# H1 (h) = H1 (h) (Homo sapiens, UniProt P35367); experiment: H1 (h) (antagonist radioligand); details: read-out: Inhibition H1 (h) (antagonist radioligand)
# beta2 (h) = beta2 (h) (Homo sapiens, UniProt P07550); experiment: beta2 (h) (antagonist radioligand); details: read-out: Inhibition beta2 (h) (antagonist radioligand)
# Cl- channel (GABA-gated) = Cl- channel (GABA-gated) (antagonist radioligand); details: 10 µM
# [1] = test system: Ca2+ channel (L, diltiazem site); experiment: Ca2+ channel (L, diltiazem site) (antagonist radioligand); details: 10 µM
# Chain of acetylcholinesterase (h) (P22303 32-614): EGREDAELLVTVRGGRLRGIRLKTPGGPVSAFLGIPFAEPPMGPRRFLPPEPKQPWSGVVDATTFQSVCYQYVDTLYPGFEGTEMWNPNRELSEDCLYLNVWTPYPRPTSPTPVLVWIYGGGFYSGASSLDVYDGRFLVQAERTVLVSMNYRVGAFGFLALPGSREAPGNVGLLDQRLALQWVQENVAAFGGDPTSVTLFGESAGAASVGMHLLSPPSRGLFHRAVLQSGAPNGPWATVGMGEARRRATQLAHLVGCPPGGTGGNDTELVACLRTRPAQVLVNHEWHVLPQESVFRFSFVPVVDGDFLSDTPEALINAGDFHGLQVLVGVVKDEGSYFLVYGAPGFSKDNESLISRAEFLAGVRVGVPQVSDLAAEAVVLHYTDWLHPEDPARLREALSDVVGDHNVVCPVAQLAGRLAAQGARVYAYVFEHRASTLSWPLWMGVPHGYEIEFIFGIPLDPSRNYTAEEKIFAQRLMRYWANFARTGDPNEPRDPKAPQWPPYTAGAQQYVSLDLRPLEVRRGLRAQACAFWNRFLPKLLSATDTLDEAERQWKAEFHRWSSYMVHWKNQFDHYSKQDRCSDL
# Chain of beta2 (h) (P07550 whole entry): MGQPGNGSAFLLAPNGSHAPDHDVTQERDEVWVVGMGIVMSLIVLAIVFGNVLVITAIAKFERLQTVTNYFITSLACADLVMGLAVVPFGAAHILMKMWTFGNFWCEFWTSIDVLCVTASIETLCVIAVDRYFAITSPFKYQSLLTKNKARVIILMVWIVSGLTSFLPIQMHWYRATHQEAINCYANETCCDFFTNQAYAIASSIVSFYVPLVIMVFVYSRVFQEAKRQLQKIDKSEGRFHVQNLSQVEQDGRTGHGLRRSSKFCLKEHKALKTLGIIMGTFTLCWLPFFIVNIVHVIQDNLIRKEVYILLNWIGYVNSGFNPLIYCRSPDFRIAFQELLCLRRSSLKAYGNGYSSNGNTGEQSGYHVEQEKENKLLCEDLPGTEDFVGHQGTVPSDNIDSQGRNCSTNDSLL
# Chain of ACE (h) (P12821 30-1306): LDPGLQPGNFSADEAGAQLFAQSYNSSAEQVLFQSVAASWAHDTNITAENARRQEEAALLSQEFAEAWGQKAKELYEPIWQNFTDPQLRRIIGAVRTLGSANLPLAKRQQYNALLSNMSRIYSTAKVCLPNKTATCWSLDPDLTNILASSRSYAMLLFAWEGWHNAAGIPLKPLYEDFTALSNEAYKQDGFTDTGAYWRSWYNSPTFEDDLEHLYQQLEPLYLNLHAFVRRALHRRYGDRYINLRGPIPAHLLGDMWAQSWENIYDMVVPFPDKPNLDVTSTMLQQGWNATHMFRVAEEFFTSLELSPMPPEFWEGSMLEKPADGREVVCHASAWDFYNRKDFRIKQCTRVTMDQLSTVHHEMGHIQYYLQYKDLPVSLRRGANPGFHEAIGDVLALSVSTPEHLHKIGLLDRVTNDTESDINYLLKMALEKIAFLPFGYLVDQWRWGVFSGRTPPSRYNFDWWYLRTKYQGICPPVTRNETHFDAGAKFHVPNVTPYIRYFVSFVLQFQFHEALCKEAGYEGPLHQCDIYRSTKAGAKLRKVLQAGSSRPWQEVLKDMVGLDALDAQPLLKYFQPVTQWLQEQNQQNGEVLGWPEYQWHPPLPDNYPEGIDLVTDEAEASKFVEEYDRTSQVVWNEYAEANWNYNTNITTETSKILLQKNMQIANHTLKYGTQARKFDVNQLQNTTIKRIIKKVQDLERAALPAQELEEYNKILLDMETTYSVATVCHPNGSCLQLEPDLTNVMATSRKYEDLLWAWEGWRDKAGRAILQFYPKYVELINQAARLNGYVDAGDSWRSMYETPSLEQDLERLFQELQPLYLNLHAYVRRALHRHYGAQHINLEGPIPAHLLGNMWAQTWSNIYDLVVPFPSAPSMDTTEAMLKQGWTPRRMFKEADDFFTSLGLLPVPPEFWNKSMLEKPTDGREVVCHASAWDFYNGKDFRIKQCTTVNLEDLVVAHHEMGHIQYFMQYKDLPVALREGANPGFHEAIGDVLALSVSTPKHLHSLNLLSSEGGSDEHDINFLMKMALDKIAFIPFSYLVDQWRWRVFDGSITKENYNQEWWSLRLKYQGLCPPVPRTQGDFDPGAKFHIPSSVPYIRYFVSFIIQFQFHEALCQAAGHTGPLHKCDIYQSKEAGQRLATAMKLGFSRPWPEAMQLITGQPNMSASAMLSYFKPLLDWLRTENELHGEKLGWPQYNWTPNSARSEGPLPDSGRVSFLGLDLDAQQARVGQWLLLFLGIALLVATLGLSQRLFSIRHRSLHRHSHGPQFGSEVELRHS
# Chain of Abl kinase (h) (P00519 whole entry): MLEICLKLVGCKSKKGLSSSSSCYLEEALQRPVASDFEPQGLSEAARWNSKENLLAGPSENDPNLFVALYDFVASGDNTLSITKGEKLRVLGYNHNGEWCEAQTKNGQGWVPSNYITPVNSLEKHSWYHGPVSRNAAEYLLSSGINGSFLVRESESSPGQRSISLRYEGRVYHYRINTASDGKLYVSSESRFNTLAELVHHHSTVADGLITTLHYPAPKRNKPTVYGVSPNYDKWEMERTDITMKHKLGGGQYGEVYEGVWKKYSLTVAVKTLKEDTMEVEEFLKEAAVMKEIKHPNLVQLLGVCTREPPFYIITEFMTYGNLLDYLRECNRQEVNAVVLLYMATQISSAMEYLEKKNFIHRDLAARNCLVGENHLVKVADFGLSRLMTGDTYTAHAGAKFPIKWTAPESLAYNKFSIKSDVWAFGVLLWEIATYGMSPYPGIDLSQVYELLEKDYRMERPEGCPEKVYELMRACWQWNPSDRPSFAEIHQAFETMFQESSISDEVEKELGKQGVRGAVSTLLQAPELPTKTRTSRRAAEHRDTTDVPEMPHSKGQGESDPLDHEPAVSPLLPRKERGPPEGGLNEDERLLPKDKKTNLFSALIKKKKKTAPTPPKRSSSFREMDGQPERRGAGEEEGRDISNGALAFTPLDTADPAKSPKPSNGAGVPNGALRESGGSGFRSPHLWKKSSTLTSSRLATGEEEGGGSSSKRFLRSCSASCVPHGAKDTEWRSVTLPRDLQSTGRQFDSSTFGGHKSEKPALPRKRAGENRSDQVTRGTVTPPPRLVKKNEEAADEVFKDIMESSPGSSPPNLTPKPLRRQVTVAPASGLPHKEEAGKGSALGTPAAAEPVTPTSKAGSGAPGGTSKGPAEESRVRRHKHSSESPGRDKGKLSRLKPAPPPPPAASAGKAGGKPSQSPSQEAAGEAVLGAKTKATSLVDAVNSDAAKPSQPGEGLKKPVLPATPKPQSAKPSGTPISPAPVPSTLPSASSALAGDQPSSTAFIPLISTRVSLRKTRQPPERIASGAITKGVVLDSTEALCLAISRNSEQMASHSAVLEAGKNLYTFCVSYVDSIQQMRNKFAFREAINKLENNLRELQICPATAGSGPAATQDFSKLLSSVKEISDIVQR
# Chain of H1 (h) (P35367 whole entry): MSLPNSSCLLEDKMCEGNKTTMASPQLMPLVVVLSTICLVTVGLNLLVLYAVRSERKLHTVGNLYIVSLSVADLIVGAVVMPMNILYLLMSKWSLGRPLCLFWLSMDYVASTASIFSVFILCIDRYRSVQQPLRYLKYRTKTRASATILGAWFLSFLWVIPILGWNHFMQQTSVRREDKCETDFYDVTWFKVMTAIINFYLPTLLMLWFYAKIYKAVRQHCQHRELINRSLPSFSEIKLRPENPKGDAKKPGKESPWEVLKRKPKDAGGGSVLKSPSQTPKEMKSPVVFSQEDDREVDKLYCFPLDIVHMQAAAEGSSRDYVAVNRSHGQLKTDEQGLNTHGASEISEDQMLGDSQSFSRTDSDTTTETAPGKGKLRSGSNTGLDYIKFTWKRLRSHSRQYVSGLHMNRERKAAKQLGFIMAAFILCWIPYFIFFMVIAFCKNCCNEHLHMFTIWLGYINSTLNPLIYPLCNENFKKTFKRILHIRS
SMILES,inhibition at 10 µM (ACE (h)),Inhibition HIV-1 protease (HIV-1 protease),inhibition at 10 µM (Abl kinase (h)),inhibition at 10 µM (ZAP70 kinase (h)),inhibition at 10 µM (acetylcholinesterase (h)),inhibition at 10 µM (AR(h)),inhibition at 10 µM (A3 (h)),inhibition at 10 µM (H1 (h)),inhibition at 10 µM (beta2 (h)),Inhibition Cl- channel (GABA-gated) (antagonist radioligand) (Cl- channel (GABA-gated)),"Inhibition Ca2+ channel (L, diltiazem site) (antagonist radioligand) [1]"
O=C(O[C@H](CO)C(F)(F)F)N1CC2(CC(CC3=C4C=CC=[N+]4[B-](F)(F)n4cccc43)C2)C1 [Compound 1],-10.4%,"10,30%",-1.9%,4.3%,-8.2%,-14.2%,-1.6%,30.4%,-3.1%,"41,90%","20,60%"
O=C(OC(C(F)(F)F)C(F)(F)F)N1CC2(CC(CC3=C4C=CC=[N+]4[B-](F)(F)n4cccc43)C2)C1 [Compound 2],-15.8%,"-1,90%",-10.5%,-2%,-2.9%,4.2%,45%,5.5%,-0.6%,"51,90%","-14,00%"
O=C(OC(C(F)(F)F)C(F)(F)F)N1CC2(CC(CC3=C4C=CC(c5ccc[nH]5)=[N+]4[B-](F)(F)n4cccc43)C2)C1 [Compound 2a],-4.4%,"8,30%",-2.9%,2.3%,2.5%,6%,34.8%,4.4%,1.8%,"40,80%","9,70%"
O=C1CO[C@H]2CCN(C(=O)N3CC4(CC(CC5=C6C=CC(c7ccc[nH]7)=[N+]6[B-](F)(F)n6cccc65)C4)C3)C[C@H]2N1 [Compound 4a],-21.2%,"23,80%",-53.1%,5.4%,1.8%,-1.4%,,1.3%,-6.2%,"40,30%","6,20%"
O=C(N1CC2(CC(CC3=C4C=CC=[N+]4[B-](F)(F)n4cccc43)C2)C1)N1CC2(CC(n3cnc(C4CC4)n3)C2)C1 [Compound 5],-21.1%,"5,20%",25.6%,6.9%,-14.4%,-19.8%,17.7%,51.5%,5.4%,"20,90%","1,70%"
